Data reported in ChEMBL document CHEMBL5608181, “Discovery of indazole inhibitors for heat shock protein 90 as anti-cancer agents” (Eur J Med Chem, 2024).
Active and inactive are the calls of the source. The rule behind the calls is not given here.

Tests used:
HEK293 = assay: Cytotoxicity against HEK293 cells assessed as reduction in cell viability at 10 uM measured after 72 hrs by CellTiter 96 Aqueous One Solution Cell Proliferation Assay; type: toxicity, cell-based; conditions: human, hek293, 72 h
JIMT-1 [1] = assay: Antiproliferative activity against human JIMT-1 cells assessed as inhibition of cell viability at 10 uM measured after 72 hrs by CellTiter 96 Aqueous One Solution Cell Proliferation Assay; type: functional, cell-based
BT-474 [2] = assay: Antiproliferative activity against human BT-474 cells assessed as inhibition of cell viability at 10 uM measured after 72 hrs by CellTiter 96 Aqueous One Solution Cell Proliferation Assay; type: functional, cell-based
BT-474 [3] = assay: Antiproliferative activity against human BT-474 cells assessed as inhibition of cell viability at 10 uM measured after 72 hrs by CellTiter 96 Aqueous One Solution Cell Proliferation Assay relative to control; type: functional
Homo sapiens = species on record: Homo sapiens; assay: Inhibition of N-terminal HSP90 (unknown origin) at 10 uM by AlphaLISA assay
JIMT-1 [4] = assay: Antiproliferative activity against human JIMT-1 cells assessed as inhibition of cell viability at 10 uM measured after 72 hrs by CellTiter 96 Aqueous One Solution Cell Proliferation Assay relative to control; type: functional

| inhibition (Homo sapiens) | Structure (SMILES) | Activity (HEK293) | inhibition at 10 µM (BT-474 [3]) [%] | other results |
| --- | --- | --- | --- | --- |
|  | COCCn1cc(NC(=O)c2ccc3c(c2OC)C=CC(C)(C)O3)c2ccccc21 | Toxic |  | Activity (JIMT-1 [1]): Active; Activity (BT-474 [2]): Active |
|  | COc1c(C(=O)Nc2ccc3c(C)nn(CCN4CCOCC4)c3c2)ccc2c1C=CC(C)(C)O2 |  | > 50 |  |
|  | COc1c(C(=O)Nc2nn(CCC3CCN(C)CC3)c3ccccc23)ccc2c1C=CC(C)(C)O2 |  | > 50 |  |
| Active | CC(C)c1cc(C(=O)N2Cc3ccc(CN4CCN(C)CC4)cc3C2)c(O)cc1O |  |  |  |
| Active | CC(C)c1cc(-c2n[nH]c(=O)n2-c2ccc3c(ccn3C)c2)c(O)cc1O |  |  |  |
|  | COCCn1nc(NC(=O)c2ccc3c(c2OC)C=CC(C)(C)O3)c2ccccc21 | Toxic | > 50 | inhibition at 10 µM (JIMT-1 [4]): > 50% |
